“Also recorded” adds a separate entry of the source. Ends that are not written are not given here.
How the values were obtained:
[1] = test system: P388D1 cells (murine monocyte-macrophage antigen presenting cell line); assay: TRANSloading of murine macrophages: uptake of fluorescein-tagged antigenic peptide with carrier peptide, flow cytometry; format: cell-based; conditions: Example 1, FIG. 1; 2 μg antigenic peptide; carrier at 101.7, 50.9 and 5.09 nmol positive charges; 1 h at 37° C.
Excerpt: To test if the (synthetic antimicrobial) peptide KLKLLLLLKLK (SEQ ID NO: 1) is able to function as “carrier-peptide” for antigens, to TRANSload APCs in vitro, which means enhancing the antigen uptake into APCs, a fluorescently labelled peptide was used as antigenic peptide. It was mixed with diverse concentrations of KLKLLLLLKLK (SEQ ID NO: 1) and other previously described “carrier-peptides” as indicated.
To compare the efficiency of peptide delivery of these diverse “carrier-peptides”, the amount of peptide uptake into APCs was monitored by incubating P388D1 cells (murine monocyte-macrophage antigen presenting cell line; purchased from ATCC (TIB-63)) for 1 h at 37° C. with a constant amount of fluorescein-tagged peptide alone or in combination with diverse “carrier-peptides” at concentrations indicated. Before analysing the cells by flow cytometry, the cells were washed extensively to remove free peptide. The relative amount of fluorescein-tagged peptide taken up by the cells was measured by flow cytometry.
The antigenic peptide used is an influenza-haemagglutinin-derived MHC class I (Kd) binding peptide (Buschle, M. (1997)). 2 μg of this fluorescein-tagged antigenic peptide (LFEAIEGFI) (SEQ ID NO:22) were mixed with 3 different amounts of each carrier peptide tested at concentrations representing 101.7, 50.9 and 5.09 nmol positive charges. […]

[2] = test system: IFN-γ-producing specific cells (lymph node cells); assay: Induction of peptide-specific T cell responses in vivo, IFN-γ ELISpot of lymph node cells after vaccination with TRP-2 peptide; set-up: species or system mice (C57BL/6)
Description: For testing the ability of the (synthetic antimicrobial) peptide KLKLLLLLKLK (SEQ ID NO: 1) to enhance the induction of peptide-specific T cell responses in vivo, groups of 4 mice (C57BL/6, female, 8 weeks of age, H-2b) were injected subcutaneously into the flank 3 times (days 0, 28, and 56), with an antigenic melanoma peptide (100 μg) derived from TRP-2 (mouse tyrosinase related protein-2) alone or in combination with either poly-Larginine or the (synthetic antimicrobial) peptide KLKLLL. LKLK (SEQ ID NO: 1) as “carrier peptide”. The amounts of the (synthetic antimicrobial) peptide KLKLLLLLKLK (SEQ ID NO: 1) used represent four different amounts at concentrations representing the equal amount (100 μg) of poly-L-arginine in terms of μg, the equal (168 μg), the double (336 μg) and the triple (504 μg) amount of poly-L-arginine in terms of positive charges. The groups of mice were injected as follows (amounts indicated/per mouse). • (1) 100 μg peptide • (2) 100 μg peptide+100 μg poly-L-arginine (pR 60) • (3) 100 μg peptide+100 μg KLKLLLLLKLK (SEQ ID NO: 1) • (4) 100 μg peptide+168 μg KLKLLLLLKLK (SEQ ID NO: 1) • (5) 100 μg peptide+336 μg KLKLLLLLKLK (SEQ ID NO: 1) • (6) 100 μg peptide+504 μg KLKLLLLLKLK (SEQ ID NO: 1) […]

Staphylococcus aureus = conditions: Staphylococcus aureus-infected mice; cited from earlier work
human neutrophils = conditions: via cell surface calreticulin; cited from earlier work

Substance | fluorescence of TRANSloaded cells (uptake of fluorescein-tagged peptide LFEAIEGFI) [1] | IFN-γ-producing T cells specific for the carrier peptide itself, ELISpot ([2]; ELISpot-assay) | IFN-γ-producing specific cells (TRP-2 peptide-specific), ELISpot ([2]; FIG. 3, s.c. days 0, 28, 56, 100 μg TRP-2 peptide plus 100-504 μg carrier, 12 days after 3rd vaccination, versus peptide alone or with poly-L-arginine) | chemotherapeutic activity (Staphylococcus aureus) | superoxide anion (O2−) production (human neutrophils)
KLKLLLLLKLK [synthetic antimicrobial peptide used as carrier peptide/adjuvant] | high and intense fluorescence | does not elicit IFN-γ-producing peptide-specific T cells | many more IFN-γ-producing specific cells; also recorded: enhances the induction of peptide-specific T cell responses in vivo | – | –
KLKLLLLLKLK-NH2 [synthetic antimicrobial peptide, amidated form] | – | – | – | significant chemotherapeutic activity | activated to produce the superoxide anion
